Assay results: US9695154B2, “Heteroaryl inhibitors of sumo activating enzyme” (MILLENNIUM PHARMACEUTICALS, INC., priority 2013, dated 2017)

Biological target: T1, recombinant human SAE enzyme (Homo sapiens, UniProt Q9UBT2)
T1 sequence (Q9UBT2 1-640): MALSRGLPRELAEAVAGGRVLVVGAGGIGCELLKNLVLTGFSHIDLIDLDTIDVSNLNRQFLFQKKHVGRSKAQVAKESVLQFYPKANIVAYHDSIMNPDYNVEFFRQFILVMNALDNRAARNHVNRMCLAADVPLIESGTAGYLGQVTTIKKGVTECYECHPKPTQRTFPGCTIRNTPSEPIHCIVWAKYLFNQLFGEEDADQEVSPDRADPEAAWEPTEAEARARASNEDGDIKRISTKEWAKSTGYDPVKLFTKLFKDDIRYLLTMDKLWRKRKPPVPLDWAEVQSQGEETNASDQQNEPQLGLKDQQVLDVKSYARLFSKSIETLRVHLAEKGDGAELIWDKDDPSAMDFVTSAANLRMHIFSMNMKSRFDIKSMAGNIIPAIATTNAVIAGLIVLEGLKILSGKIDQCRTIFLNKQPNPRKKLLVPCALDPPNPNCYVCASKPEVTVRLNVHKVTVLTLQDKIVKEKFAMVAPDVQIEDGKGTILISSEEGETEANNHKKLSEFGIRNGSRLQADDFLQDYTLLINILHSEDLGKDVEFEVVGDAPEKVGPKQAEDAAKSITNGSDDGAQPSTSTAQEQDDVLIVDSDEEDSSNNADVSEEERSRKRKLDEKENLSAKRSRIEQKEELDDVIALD
T1 sequence (Q9UBE0 1-346 partner): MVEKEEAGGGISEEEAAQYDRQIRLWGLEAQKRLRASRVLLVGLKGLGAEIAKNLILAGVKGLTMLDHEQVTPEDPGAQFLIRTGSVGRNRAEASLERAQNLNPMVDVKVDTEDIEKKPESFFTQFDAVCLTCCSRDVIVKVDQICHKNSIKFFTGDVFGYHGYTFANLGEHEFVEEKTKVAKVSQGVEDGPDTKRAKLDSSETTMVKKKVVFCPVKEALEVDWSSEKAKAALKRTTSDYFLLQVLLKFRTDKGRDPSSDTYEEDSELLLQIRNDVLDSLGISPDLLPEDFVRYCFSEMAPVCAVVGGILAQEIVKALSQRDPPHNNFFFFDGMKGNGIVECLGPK
Experiment: SAE HTRF Enzyme Assay
Assay type: biochemical
Conditions: for IC50: class symbols A-C; for inhibition at 0.111 µM / Percent Inhibition: compound concentration 0.111 μM; for inhibition at 0.111 µM: read-out: Percent Inhibition; for Percent Inhibition: 0.111 µM
Outline: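 Reaction with 0.11 nM recombinant human SAE, 0.5 μM ATP, 0.01 μM Ubc9-GST, 0.125 μM Sumo-Flag in HEPES pH 7.5, MgCl2, GSH, BSA, 105 min at 24 °C. Stopped with EDTA/KF buffer carrying Eu-anti-Flag and anti-GST-APC; HTRF read after 2 h; % inhibition or IC50.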

NS(=O)(=O)OC[C@H]1C[C@@H](Nc2ncncc2C(=O)c2ccn(CC(=O)c3cccc(Br)c3)n2)[C@H](O)[C@@H]1O [Compound I-96, [(1R,2R,3S,4R)-4-{[5-({1-[2-(3-bromophenyl)-2-oxoethyl]-1H-pyrazol-3-yl}carbonyl)pyrimidin-4-yl]amino}-2,3-dihydroxycyclopentyl]methyl sulfamate]
IC50: < 10 nM
inhibition at 0.111 µM: 98%

C#Cc1cccc(Cn2ccc(C(=O)c3cncnc3N[C@@H]3C[C@H](COS(N)(=O)=O)[C@@H](O)C3)n2)c1 [Compound I-85, {(1R,2S,4R)-4-[(5-{[1-(3-ethynylbenzyl)-1H-pyrazol-3-yl]carbonyl}pyrimidin-4-yl)amino]-2-hydroxycyclopentyl}methyl sulfamate]
IC50: < 10 nM
inhibition at 0.111 µM: 98%

NS(=O)(=O)OC[C@H]1C[C@@H](Nc2ncncc2C(=O)c2cc(C(F)(F)F)n(Cc3cccc(Cl)c3)n2)[C@@H](F)[C@@H]1O [Compound I-316, {(1R,2R,3R,4R)-4-[(5-{[1-(3-Chlorobenzyl)-5-(trifluoromethyl)-1H-pyrazol-3-yl]carbonyl}pyrimidin-4-yl)amino]-3-fluoro-2-hydroxycyclopentyl}methyl sulfamate]
IC50: < 10 nM
inhibition at 0.111 µM: 94%

C#Cc1cc(Cn2ccc(C(=O)c3cncnc3N[C@@H]3C[C@H](COS(N)(=O)=O)[C@@H](O)C3)n2)ccc1F [Compound I-166, {(1R,2S,4R)-4-[(5-{[1-(3-ethynyl-4-fluorobenzyl)-1H-pyrazol-3-yl]carbonyl}pyrimidin-4-yl)amino]-2-hydroxycyclopentyl}methyl sulfamate]
IC50: < 10 nM
inhibition at 0.111 µM: 98%

CC(c1ccc(Cl)o1)n1ccc(C(=O)c2cncnc2N[C@@H]2C[C@H](COS(N)(=O)=O)[C@@H](O)C2)n1 (single isomer, unassigned) [Compound I-79, [(1R,2S,4R)-4-{[5-({1-[(1S)-1-(5-chloro-2-furyl)ethyl]-1H-pyrazol-3-yl}carbonyl)pyrimidin-4-yl]amino}-2-hydroxycyclopentyl]methyl sulfamate or [(1R,2S,4R)-4-{[5-({1-[(1R)-1-(5-chloro-2-furyl)ethyl]-1H-pyrazol-3-yl}carbonyl)pyrimidin-4-yl]amino}-2-hydroxycyclopentyl]methyl sulfamate]
IC50: < 10 nM
Percent Inhibition: 98%

NS(=O)(=O)OC[C@H]1C[C@@H](Nc2ncncc2C(=O)c2ccn(Cc3ccc(F)cc3F)n2)[C@H](O)[C@@H]1O [Compound I-336, {(1R,2R,3S,4R)-4-[(5-{[1-(2,4-difluorobenzyl)-1H-pyrazol-3-yl]carbonyl}pyrimidin-4-yl)amino]-2,3-dihydroxycyclopentyl}methyl sulfamate]
IC50: < 10 nM
inhibition at 0.111 µM: 97%

NS(=O)(=O)OC[C@H]1C[C@@H](Nc2ncncc2C(=O)c2cc(Cl)n(Cc3ccc(Cl)o3)c2)[C@@H](F)[C@@H]1O [Compound I-254, [(1R,2R,3R,4R)-4-{[5-({5-chloro-1-[(5-chloro-2-furyl)methyl]-1H-pyrrol-3-yl}carbonyl)pyrimidin-4-yl]amino}-3-fluoro-2-hydroxycyclopentyl]methyl sulfamate]
IC50: < 10 nM
inhibition at 0.111 µM: 99%

NS(=O)(=O)OC[C@H]1C[C@@H](Nc2ncncc2C(=O)c2ccn(Cc3ccc(Cl)cc3F)n2)[C@H](O)[C@@H]1O [Compound I-146, {(1R,2R,3S,4R)-4-[(5-{[1-(4-chloro-2-fluorobenzyl)-1H-pyrazol-3-yl]carbonyl}pyrimidin-4-yl)amino]-2,3-dihydroxycyclopentyl}methyl sulfamate]
IC50: < 10 nM
inhibition at 0.111 µM: 99%

NS(=O)(=O)OC[C@H]1C[C@@H](Nc2ncncc2C(=O)c2ccn(Cc3cc(F)c(F)cc3F)n2)[C@H](O)[C@@H]1O [Compound I-314, {(1R,2R,3S,4R)-2,3-dihydroxy-4-[(5-{[1-(2,4,5-trifluorobenzyl)-1H-pyrazol-3-yl]carbonyl}pyrimidin-4-yl)amino]cyclopentyl}methyl sulfamate]
IC50: < 10 nM
inhibition at 0.111 µM: 97%

NS(=O)(=O)OC[C@H]1C[C@@H](Nc2ncncc2C(=O)c2ccn(Cc3ccc(C(F)(F)F)o3)n2)C[C@@H]1O [Compound I-163, [(1R,2S,4R)-2-hydroxy-4-({5-[(1-{[5-(trifluoromethyl)-2-furyl]methyl}-1H-pyrazol-3-yl)carbonyl]pyrimidin-4-yl}amino)cyclopentyl]methyl sulfamate]
IC50: < 10 nM
inhibition at 0.111 µM: 98%

NS(=O)(=O)OC[C@H]1C[C@@H](Nc2ccncc2C(=O)c2ccn(Cc3cccc(Cl)c3)n2)[C@@H](F)[C@@H]1O [Compound I-242, {(1R,2R,3R,4R)-4-[(3-{[1-(3-chlorobenzyl)-1H-pyrazol-3-yl]carbonyl}pyridin-4-yl)amino]-3-fluoro-2-hydroxycyclopentyl}methyl sulfamate]
IC50: < 10 nM
inhibition at 0.111 µM: 96%

NS(=O)(=O)OC[C@H]1C[C@@H](Nc2ncncc2C(=O)c2ccn(Cc3cccc(Br)c3)n2)C[C@@H]1O [Compound I-11, {(1R,2S,4R)-4-[(5-{[1-(3-bromobenzyl)-1H-pyrazol-3-yl]carbonyl}pyrimidin-4-yl)amino]-2-hydroxycyclopentyl}methyl sulfamate]
inhibition at 0.111 µM: 100%

Cc1cc(Cn2ccc(C(=O)c3cncnc3N[C@@H]3C[C@H](COS(N)(=O)=O)[C@@H](O)C3)n2)no1 [Compound I-348, [(1R,2S,4R)-2-hydroxy-4-{[5-({1-[(5-methylisoxazol-3-yl)methyl]-1H-pyrazol-3-yl}carbonyl)pyrimidin-4-yl]amino}cyclopentyl]methyl sulfamate]
IC50: < 10 nM
inhibition at 0.111 µM: 94%

NS(=O)(=O)OC[C@H]1C[C@@H](Nc2ncncc2C(=O)c2ccn(Cc3ccc(C(F)F)o3)n2)C[C@@H]1O [Compound I-235, [(1R,2S,4R)-4-({5-[(1-{[5-(difluoromethyl)-2-furyl]methyl}-1H-pyrazol-3-yl)carbonyl]pyrimidin-4-yl}amino)-2-hydroxycyclopentyl]methyl sulfamate]
IC50: < 10 nM
inhibition at 0.111 µM: 100%

NS(=O)(=O)OC[C@H]1C[C@@H](Nc2ncncc2C(=O)c2ccn(Cc3cccc(Cl)c3)n2)C[C@@H]1O [Compound I-215, {(1R,2S,4R)-4-[(5-{[1-(3-chlorobenzyl)-1H-pyrazol-3-yl]carbonyl}pyrimidin-4-yl)amino]-2-hydroxycyclopentyl}methyl sulfamate]
IC50: < 10 nM
inhibition at 0.111 µM: 99%

NS(=O)(=O)OC[C@H]1C[C@@H](Nc2ncncc2C(=O)c2ccn(Cc3cccc(I)c3)c2)C[C@@H]1O [Compound I-68, {(1R,2S,4R)-2-hydroxy-4-[(5-{[1-(3-iodobenzyl)-1H-pyrrol-3-yl]carbonyl}pyrimidin-4-yl)amino]cyclopentyl}methyl sulfamate]
IC50: < 10 nM
inhibition at 0.111 µM: 99%

NS(=O)(=O)OC[C@H]1C[C@@H](Nc2ncncc2C(=O)c2cc(CO)n(Cc3ccccc3)n2)C[C@@H]1O [Compound I-335, {(1R,2S,4R)-4-[(5-{[1-Benzyl-5-(hydroxymethyl)-1H-pyrazol-3-yl]carbonyl}pyrimidin-4-yl)amino]-2-hydroxycyclopentyl}methyl sulfamate]
IC50: < 10 nM
inhibition at 0.111 µM: 97%

CC(C)(C)c1cccc(Cn2ccc(C(=O)c3cncnc3N[C@@H]3C[C@H](COS(N)(=O)=O)[C@@H](O)C3)n2)c1 [Compound I-64, {(1R,2S,4R)-4-[(5-{[1-(3--tert-butylbenzyl)-1H-pyrazol-3-yl]carbonyl}pyrimidin-4-yl)amino]-2-hydroxycyclopentyl}methyl sulfamate]
IC50: 10 to 100 nM
inhibition at 0.111 µM: 91%

CC(c1ccc(C(F)(F)F)o1)n1ccc(C(=O)c2cncnc2N[C@@H]2C[C@H](COS(N)(=O)=O)[C@@H](O)[C@@H]2F)c1 (single isomer, unassigned) [Compound I-357, [(1R,2R,3R,4R)-3-fluoro-2-hydroxy-4-({5-[(1-{(1S)-1-[5-(trifluoromethyl)-2-furyl]ethyl}-1H-pyrrol-3-yl)carbonyl]pyrimidin-4-yl}amino)cyclopentyl]methyl sulfamate or [(1R,2R,3R,4R)-3-fluoro-2-hydroxy-4-({5-[(1-{(1R)-1-[5-(trifluoromethyl)-2-furyl]ethyl}-1H-pyrrol-3-yl)carbonyl]pyrimidin-4-yl}amino)cyclopentyl]methyl sulfamate]
IC50: < 10 nM
Percent Inhibition: 100%
